Converted amounts (≈) assume the structure as drawn.
Legend:
[1] = Cytotoxicity against HEK293T cells at 50 uM after 72 hrs by MTT assay; type: cell-based, HEK-293T; settings: human
[2] = tested on: HEK-293T; assay: Cytotoxicity against HEK293T cells after 72 hrs by MTT assay; type: cell-based; settings: Homo sapiens
[3] = Selectivity index, ratio of IC50 for HEK293T cells to MIC for Mycobacterium tuberculosis H37Rv ATCC 27294; type: toxicity, cell-based, HEK-293T; settings: human, read-out: Selectivity Index
[4] = tested on: Pseudomonas aeruginosa; assay: Antibacterial activity against Pseudomonas aeruginosa; type: functional
[5] = tested on: Mycobacterium tuberculosis; assay: Antimycobacterial activity against Mycobacterium tuberculosis H37Rv ATCC 27294 after 28 days by agar dilution method; type: functional; settings: H37Rv ATCC 27294, 672 h
[6] = tested on: Mycolicibacterium smegmatis; assay: Antimycobacterial activity against Mycobacterium smegmatis assessed as growth inhibition after 32 hrs by spectrophotometry; type: functional

Row | SMILES | inhibition at 72 h, 50 µM [1] [%] | IC50 [2] [µM] | selectivity ratio [3] | MIC [4] [µM] | MIC [5] [µM] | GI50 [6] [µM]
1 | O=C(Cn1c(-c2ccc3ccccc3c2)cc(-c2ccccc2)c1-c1ccco1)Nc1nc2ccccc2s1 | 38.3 | < 50 | > 16.8 | 286 (≈ 150 µg/mL) | 2.97 (≈ 1.56 µg/mL) | 
2 | CCc1nnc(NC(=O)Cn2c(-c3ccccc3)cc(-c3cccc4ccccc34)c2-c2ccco2)s1 | 59.7 | < 50 | 16.1 | 298 (≈ 150 µg/mL) | 3.1 (≈ 1.56 µg/mL) | 66.8
3 | O=C(O)Cn1c(-c2ccccc2)cc(-c2cccc3ccccc23)c1-c1ccco1 | 32 | < 50 | > 6.29 | 13.3 (≈ 5.22 µg/mL) | 7.95 (≈ 3.13 µg/mL) | 
4 | O=C(O)Cn1c(-c2cccc3ccccc23)cc(-c2ccccc2)c1-c1ccco1 | 79.5 | < 50 | 1.57 | 47.7 (≈ 18.8 µg/mL) | 31.8 (≈ 12.5 µg/mL) | 
5 | O=C(O)Cn1c(-c2ccccc2)cc(-c2ccccc2)c1-c1ccc(Cl)cc1 | 37.4 | < 50 | 1.55 | 388 (≈ 150 µg/mL) | 64.6 (≈ 25.1 µg/mL) | 
6 | O=C(Cn1c(-c2ccccc2)cc(-c2ccco2)c1-c1ccco1)Nc1nc2ccccc2s1 | 65.1 | < 50 | 1.7 | 354 (≈ 165 µg/mL) | 29.5 (≈ 13.7 µg/mL) | 14
7 | O=C(Cn1c(-c2ccccc2)cc(-c2cccc3ccccc23)c1-c1ccco1)Nc1nc2ccccc2s1 | 68.8 | < 50 | 16.8 | 286 (≈ 150 µg/mL) | 2.97 (≈ 1.56 µg/mL) | 61.4
8 | O=C(Cn1c(-c2ccccc2)cc(-c2ccccc2)c1-c1ccc(Br)cc1)Nc1ccccn1 | 75 | < 50 | 8.13 | 295 (≈ 150 µg/mL) | 6.15 (≈ 3.13 µg/mL) | 45.9
9 | CN[C@@H]1[C@H](O[C@H]2[C@H](O[C@H]3[C@H](O)[C@@H](O)[C@H](N=C(N)N)[C@@H](O)[C@@H]3N=C(N)N)O[C@@H](C)[C@]2(O)C=O)O[C@@H](CO)[C@H](O)[C@H]1O [STREPTOMYCIN] |  |  |  | 2.68 (≈ 1.56 µg/mL) |  | 
10 | O=C(Cn1c(-c2ccccc2)cc(-c2ccccc2)c1-c1ccco1)NCc1ccccc1 | 72.4 | < 50 | 6.91 | 347 (≈ 150 µg/mL) | 7.23 (≈ 3.13 µg/mL) | 52.4
11 | CCc1nnc(NC(=O)Cn2c(-c3ccc4ccccc4c3)cc(-c3ccccc3)c2-c2ccco2)s1 | 83.6 | < 50 | 2.02 | 298 (≈ 150 µg/mL) | 24.8 (≈ 12.5 µg/mL) | 73.9
12 | CC1(C)S[C@@H]2[C@H](NC(=O)Cc3ccccc3)C(=O)N2[C@H]1C(=O)O [PENICILLIN G] |  |  |  | 37.4 (≈ 12.5 µg/mL) |  | 
13 | CO[C@H]1/C=C/O[C@@]2(C)Oc3c(C)c(O)c4c(O)c(c(/C=N/N5CCN(C)CC5)c(O)c4c3C2=O)NC(=O)/C(C)=C\C=C\[C@H](C)[C@H](O)[C@@H](C)[C@@H](O)[C@@H](C)[C@H](OC(C)=O)[C@@H]1C [RIFAMPIN] |  |  |  |  | 0.29 (≈ 0.239 µg/mL) | 1.22
14 | O=C(Cn1c(-c2ccccc2)cc(-c2ccccc2)c1-c1ccccc1)Nc1nc2ccccc2s1 | 55 | < 50 | 0.76 | 309 (≈ 150 µg/mL) | 6.44 (≈ 3.13 µg/mL) | 28.9
15 | O=C(Cn1c(-c2ccccc2)cc(-c2ccccc2)c1-c1ccccc1)Nc1ccccn1 | 62.9 | < 50 | 6.86 | 175 (≈ 75.1 µg/mL) | 7.28 (≈ 3.13 µg/mL) | 26.7
16 | NNC(=O)c1ccncc1 [ISONIAZID] |  |  |  |  | 5.25 (≈ 0.72 µg/mL) | 41.6
17 | CC[C@@H](CO)NCCN[C@@H](CC)CO [ETHAMBUTOL] |  |  |  |  | 27.5 (≈ 5.62 µg/mL) | 

Row | SMILES | inhibition at 72 h, 50 µM [1] [%] | IC50 [2] [µM] | selectivity ratio [3] | MIC [4] [µM] | MIC [5] [µM] | GI50 [6] [µM]
18 | O=C(O)Cn1c(-c2ccccc2)cc(-c2ccccc2)c1-c1ccco1 | 114 | < 50 | 2.74 | 54.7 (≈ 18.8 µg/mL) | 18.2 (≈ 6.26 µg/mL) | 
19 | CC(C)CC(C(=O)O)n1c(-c2ccccc2)cc(-c2ccccc2)c1-c1ccco1 (stereo not given) | 82.4 | < 50 | 6.38 | 376 (≈ 150 µg/mL) | 7.83 (≈ 3.13 µg/mL) | 
20 | Cc1ccc(-c2c(-c3ccccc3)cc(-c3ccccc3)n2CC(=O)O)cc1 | 78.2 | < 50 | 0.86 | 409 (≈ 150 µg/mL) | 58 (≈ 21.3 µg/mL) | 
21 | O=C(Cn1c(-c2ccccc2)cc(-c2ccccc2)c1-c1ccco1)NCCc1c[nH]c2ccccc12 | 62.5 | < 50 | 7.76 | 77.3 (≈ 37.5 µg/mL) | 6.44 (≈ 3.13 µg/mL) | 26.8
22 | O=C(O)Cn1c(-c2ccccc2)cc(-c2ccccc2)c1-c1ccccc1 | 97 | < 50 | 1.47 | 47.7 (≈ 16.9 µg/mL) | 34.1 (≈ 12 µg/mL) | 
23 | CC(C)C(C(=O)O)n1c(-c2ccccc2)cc(-c2ccccc2)c1-c1ccco1 (stereo not given) |  |  |  | 97.4 (≈ 37.5 µg/mL) | 130 (≈ 50.1 µg/mL) | 
24 | O=C(Cn1c(-c2ccccc2)cc(-c2ccccc2)c1-c1ccco1)Nc1ccccn1 | 69.3 | < 50 | 1.68 | 358 (≈ 150 µg/mL) | 29.8 (≈ 12.5 µg/mL) | 24.8
25 | O=C(Cn1c(-c2ccccc2)cc(-c2ccccc2)c1-c1ccc(Br)cc1)Nc1nc2ccccc2s1 | 86.7 | < 50 | 4.51 | 266 (≈ 150 µg/mL) | 11.1 (≈ 6.25 µg/mL) | 48.3
26 | O=C(O)Cn1c(-c2ccccc2)cc(-c2ccccc2)c1-c1ccc(Br)cc1 |  |  |  | 348 (≈ 150 µg/mL) | 32.3 (≈ 14 µg/mL) | 
27 | CCc1nnc(NC(=O)Cn2c(-c3ccccc3)cc(-c3ccccc3)c2-c2ccco2)s1 | 81 | < 50 | 1.81 | 331 (≈ 151 µg/mL) | 27.6 (≈ 12.5 µg/mL) | 23.3
28 | O=C(O)Cn1c(-c2ccccc2)cc(-c2ccco2)c1-c1ccco1 |  |  |  | 113 (≈ 37.5 µg/mL) | 75.1 (≈ 25 µg/mL) | 
29 | CCc1nnc(NC(=O)Cn2c(-c3ccccc3)cc(-c3ccco3)c2-c2ccco2)s1 | 90.2 | < 50 | 3.55 | 338 (≈ 150 µg/mL) | 14.1 (≈ 6.26 µg/mL) | 15.2
30 | O=C(Cn1c(-c2ccccc2)cc(-c2ccccc2)c1-c1ccco1)Nc1nc2ccccc2s1 | 89.8 | < 50 | 3.8 | 316 (≈ 150 µg/mL) | 13.2 (≈ 6.26 µg/mL) | 44.6
31 | CCc1nnc(NC(=O)Cn2c(-c3ccccc3)cc(-c3ccccc3)c2-c2ccc(Br)cc2)s1 |  |  |  | 277 (≈ 150 µg/mL) | 46.1 (≈ 25.1 µg/mL) | 30.6
32 | CC(C)C(C(=O)O)n1c(-c2ccccc2)cc(-c2ccco2)c1-c1ccco1 (stereo not given) |  |  |  | 400 (≈ 150 µg/mL) | 66.7 (≈ 25 µg/mL) | 
33 | CCc1nnc(NC(=O)Cn2c(-c3ccccc3)cc(-c3ccccc3)c2-c2ccccc2)s1 | 49.3 | < 50 | 3.71 | 323 (≈ 150 µg/mL) | 13.5 (≈ 6.26 µg/mL) | 20.4
34 | O=C(Cn1c(-c2ccc3ccccc3c2)cc(-c2ccccc2)c1-c1ccco1)NCc1ccccc1 |  |  |  | 311 (≈ 150 µg/mL) | 51.9 (≈ 25 µg/mL) | 

From ChEMBL document CHEMBL3352807, “Design, synthesis and anti-mycobacterial activity of 1,2,3,5-tetrasubstituted pyrrolyl-N-acetic acid derivatives” (Eur J Med Chem, 2014)
